Several values for one entry are separate records, joined by “and”; a condition that tells them apart may be missing. Equal entries are not always repeated.
How the values were obtained:
[1] = ABTS free radical scavenging assay; type: biochemical
Description: (§1) In accordance with the procedure described in the literature, the ABTS activity assay was applied to evaluate the free radical scavenging capabilities of the synthesized compounds (1–6). ABTS solution was prepared by mixing 7 mM ABTS and 2.45 mM potassium persulfate and was then placed for 16 h under dark at room temperature. A methanol dilution was performed on the solution to achieve an absorbance of 0.706 ± 0.001 at 734 nm before starting the assay. To quantify the assay, 3 mL of the ABTS solution has been added to different concentrations (ranging from 62.5 to 1000 μg/mL) of every compound (300 μL) that were dissolved in methanol. Then after 1 min of incubation, the absorbance was continuously measured for 5 min. To confirm precision, all experiments were conducted in triplicate. The antioxidant capacities of the compounds were assessed with gallic acid as a reference, and the ability to remove free radicals was calculated as a percentage for each compound employing Equation.1 as presented below. Additionally, the DPPH free radical scavenging method was employed to assess the antioxidant activity of compounds (1–6), in accordance with a widely recognized procedure documented in existing literature. Concentrations ranging from 62.5 to 1000 μg/mL of compounds (1–6), dissolved in methanol, were introduced into a 2 mL solution of DPPH (0.002 % in methanol). The resulting solutions were kept in the dark at room temperature for a duration of 30 min. The amount of light absorbed by the solutions was then determined using a UV/vis spectrophotometer at a wavelength of 517 nm. The investigations were performed three times, using the exact protocol described for the ABTS scavenging assay. Afterwards, the antioxidant capabilities of each molecule were assessed using calculation.(1) Scavengingactivity(%)=A−B/A×100
(§2) Where, A = absorbance of ABTS/DPPH and B = absorbance of solution containing ABTS/DPPH and test samples.

E. coli = assay: Antibacterial agar well diffusion; type: cell-based, Escherichia coli (ATCC25922); details: Escherichia coli, 24 h, 6.25 mg/mL per well, 37 °C
Source text: (§3) The antibacterial assay was done for all compounds (1–6) as described in previous studies. The mean number of viable organisms per milliliter of stock suspensions containing Escherichia coli (ATCC25922), Pseudomonas aeruginosa (ATCC27853), Salmonella typhi (ATCC0650), and Staphylococcus aureus (NCTC25953) was uncovered using the surface viable counting method. Preparations of suspensions containing approximately 108–109 colony forming units (CFU) per milliliter were made. Aseptic nutritional agar was formulated and transferred onto petri dishes. Cultures of bacteria were uniformly distributed on agar surface using sterile brush sticks. Five wells, each with a diameter of 6 mm, were made in each plate using a sterile borer. Afterwards, a concentration of 6.25 mg/mL of each component was applied to separate wells. Cephradine, a readily accessible antibiotic, was employed as a reference standard at an equivalent concentration. Following sealing, the agar dishes were incubated at a controlled temperature of 37 °C for a period of 24 h. The zone of inhibition in the plates was determined, which represents the inhibition of bacterial growth. Each sample zone of inhibition diameter was evaluated, and the antibacterial effectiveness of each drug was quantified according to the mean diameter of the inhibition zone (in millimetres).

S. typhi = assay: Antibacterial agar well diffusion; type: cell-based, Salmonella typhi (ATCC0650); details: 24 h, 6.25 mg/mL per well, 37 °C; for zone of inhibition at 6250 µg/mL: Salmonella enterica, TYPHI
Source text: as §3

[2] = molecular target: T1, butyryl cholinesterase (BChE) (Equus caballus, UniProt P81908); assay: Anticholinesterase assay (Elman's test), BChE; type: biochemical
T1 construct: The AChE was derived from the electric eel, while BChE was obtained from equineserum; from tissue; host or cells: equine serum
Description: (§4) This assay employed two enzymes, namely acetylcholinesterase (AChE) and butyryl cholinesterase (BChE). The AChE was derived from the electric eel, while BChE was obtained from equineserum. The synthesized compounds were dissolved in phosphate buffer (0.1 M, pH 8.0). The enzymes AChE (518 U/mg) and BChE (7–16 U/mg) were diluted in a 0.1 M phosphate buffer to achieve concentrations of 0.03 U/mL and 0.01 U/mL, respectively. Preparations of ATchI (0.5 mM), DTNB (0.2273 mM), and BTchI (0.5 mM) were made in distilled water and stored at a low temperature of 8 °C. […] The solution was heated to 30 °C for 15 min, followed by the gradual addition of the substrate. Absorbance of the heated sample at 412 nm was measured using a double beam spectrophotometer. […] The percentage activity (A) and inhibition of the enzyme were determined by applying the rate of absorption as a function of time (V=ΔAbs/Δt) using the following equation (Equation (2)).(2) %Inhibition=V/Vmax×100 Where V = enzyme inhibition activity of products and Vmax = enzyme activity without test of product.

P. aeruginosa = assay: Antibacterial agar well diffusion; type: cell-based, Pseudomonas aeruginosa (ATCC27853); details: Pseudomonas aeruginosa, 24 h, 6.25 mg/mL per well, 37 °C
Source text: as §3

S. flexenari = assay: Antibacterial agar well diffusion; type: cell-based; details: 24 h, 6.25 mg/mL per well, 37 °C
[3] = DPPH free radical scavenging assay; type: biochemical
Description: as §1, §2

[4] = molecular target: T2, acetylcholinesterase (AChE) (Electrophorus electricus, UniProt O42275); assay: biochemical
T2 construct: The AChE was derived from the electric eel, while BChE was obtained from equineserum; from tissue; host or cells: electric eel (tissue not specified)
Description: as §4

[5] = read-out: BChE Percent inhibition
[6] = read-out: AChE Percent inhibition

T1 sequence (P81908 whole entry): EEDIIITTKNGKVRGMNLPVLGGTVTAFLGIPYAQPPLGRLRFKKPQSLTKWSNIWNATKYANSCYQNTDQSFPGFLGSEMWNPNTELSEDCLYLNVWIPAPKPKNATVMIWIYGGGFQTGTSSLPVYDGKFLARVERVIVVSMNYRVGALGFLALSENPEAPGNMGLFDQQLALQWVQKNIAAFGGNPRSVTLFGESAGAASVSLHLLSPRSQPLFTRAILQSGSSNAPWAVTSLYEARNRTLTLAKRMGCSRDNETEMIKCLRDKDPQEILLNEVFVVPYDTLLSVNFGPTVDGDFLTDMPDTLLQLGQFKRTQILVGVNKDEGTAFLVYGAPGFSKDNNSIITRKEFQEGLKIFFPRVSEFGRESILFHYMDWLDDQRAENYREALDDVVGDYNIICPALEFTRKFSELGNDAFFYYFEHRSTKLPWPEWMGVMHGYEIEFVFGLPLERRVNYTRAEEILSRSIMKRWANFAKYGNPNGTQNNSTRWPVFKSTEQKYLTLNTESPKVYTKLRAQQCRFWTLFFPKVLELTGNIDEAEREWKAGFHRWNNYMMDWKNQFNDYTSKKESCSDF
T2 sequence (O42275 24-633): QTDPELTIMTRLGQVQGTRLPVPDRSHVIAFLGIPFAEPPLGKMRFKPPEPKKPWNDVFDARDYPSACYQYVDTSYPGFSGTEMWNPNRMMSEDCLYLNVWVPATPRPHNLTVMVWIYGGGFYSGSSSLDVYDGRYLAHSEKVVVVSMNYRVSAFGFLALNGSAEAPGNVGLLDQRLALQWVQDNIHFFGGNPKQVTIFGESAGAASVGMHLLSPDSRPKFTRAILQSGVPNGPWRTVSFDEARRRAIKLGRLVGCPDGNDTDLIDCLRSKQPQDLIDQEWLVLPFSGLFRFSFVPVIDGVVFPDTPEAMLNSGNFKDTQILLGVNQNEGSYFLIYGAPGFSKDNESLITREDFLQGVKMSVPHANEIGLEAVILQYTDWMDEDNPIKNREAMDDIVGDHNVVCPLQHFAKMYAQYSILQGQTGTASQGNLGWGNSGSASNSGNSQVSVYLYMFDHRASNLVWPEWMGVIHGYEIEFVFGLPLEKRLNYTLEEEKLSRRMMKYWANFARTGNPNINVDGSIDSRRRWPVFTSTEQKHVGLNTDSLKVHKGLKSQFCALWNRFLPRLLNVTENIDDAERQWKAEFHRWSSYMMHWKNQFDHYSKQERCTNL

| Structure (SMILES) | ABTS IC50 [1] [µg/mL] | ABTS %inhibition ([1]; 62.5 μg/mL) [%] | ABTS %inhibition ([1]; 250 μg/mL) [%] | ABTS %inhibition ([1]; 500 μg/mL) [%] | ABTS %inhibition ([1]; 1000 μg/mL) [%] | zone of inhibition at 6250 µg/mL (S. typhi) [mm] | inhibition at 62.5 µg/mL [2, 5] [%] | inhibition at 125 µg/mL [2, 5] [%] | inhibition at 500 µg/mL [2, 5] [%] | inhibition at 1000 µg/mL [2, 5] [%] | DPPH IC50 [3] [µg/mL] | DPPH %inhibition ([3]; 62.5 μg/mL) [%] | DPPH %inhibition ([3]; 125 μg/mL) [%] | DPPH %inhibition ([3]; 250 μg/mL) [%] | DPPH %inhibition ([3]; 500 μg/mL) [%] | DPPH %inhibition ([3]; 1000 μg/mL) [%] | other results |
| --- | --- | --- | --- | --- | --- | --- | --- | --- | --- | --- | --- | --- | --- | --- | --- | --- | --- |
| S=C(Nc1ccc(Cl)cc1)NC1CCCCC1 [Compound 4, 1-(4-chlorophenyl)-3-cyclohexylthiourea] | 67.01 | 48.19 ± 1.26 | 61.14 ± 1.43 | 71.03 ± 1.61 | 81.23 ± 1.01 | 11.5 | 33 ± 1.15 | 42.7 ± 0.89 | 63.03 ± 0.23 | 71.33 ± 0.49 | 67.11 | 48.18 ± 2.31 | 54.67 ± 2.08 | 63.74 ± 0.81 | 72.29 ± 0.27 | 82.11 ± 1.20 | zone of inhibition at 6250 µg/mL (E. coli): 12 mm; IC50 [2]: 814 µM; inhibition at 250 µg/mL [2, 5]: 49 ± 0.58%; zone of inhibition at 6250 µg/mL (P. aeruginosa): 10 mm; zone of inhibition at 6250 µg/mL (S. flexenari): 13 mm; IC50 [4]: 928 µM; inhibition at 62.5 µg/mL [4, 6]: 31.9 ± 0.48%; inhibition at 125 µg/mL [4, 6]: 39 ± 0.48%; inhibition at 250 µg/mL [4, 6]: 47.9 ± 0.96%; inhibition at 500 µg/mL [4, 6]: 61.6 ± 1.34%; inhibition at 1000 µg/mL [4, 6]: 69.6 ± 1.12% |
| COc1ccc2c3c1O[C@H]1C[C@@H](O)C=C[C@@]31CCN(C)C2 [Galantamine, reference compound] | – | – | – | – | – | – | 64.9 ± 0.87 | 67.9 ± 0.98 | 81.83 ± 0.37 | 89.64 ± 0.62 | – | – | – | – | – | – | – |
| O=C(O)c1cc(O)c(O)c(O)c1 [Gallic acid, gallic acid, reference compound] | 39.54 | 51.68 ± 0.22 | 66.43 ± 0.29 | 71.88 ± 0.20 | 75.89 ± 0.20 | – | – | – | – | – | 27.06 | 57.54 ± 0.46 | 63.83 ± 1.07 | 69.47 ± 0.46 | 75.45 ± 0.45 | 81.45 ± 0.65 | ABTS %inhibition ([1]; 125 μg/mL): 59.84 ± 0.32% |
| CC1=C(C(=O)O)N2C(=O)[C@@H](NC(=O)[C@H](N)C3=CCC=CC3)[C@H]2SC1 [Std.Drug, Cephradine, reference compound] | – | – | – | – | – | 15 | – | – | – | – | – | – | – | – | – | – | Zone of inhibition (S. typhi): 25 mm and 20 mm and 14 mm and 13 mm |

— publication PMC11141368, “Antioxidant, antibacterial, enzyme inhibition and fluorescence characteristics of unsymmetrical thiourea derivatives” (Heliyon, 2024)
